Data published in PubChem BioAssay AID1918994 (Molecular Pharmacology Branch, DTP, NCI, 2023).
pIC50: −log10 of the molar value. “And” between values parts separate entries of the source, which are not always exact repeats. Identical values can stand only once.

System: 292921-168-R-J2-PDC complex spheroid growth
Assay: Anticancer human tumor 292921-168-R-J2-PDC patient-derived pancreatic carcinoma cell line growth inhibition [AhR]
Conditions: for viability, T/C: stronger effect = lower value; active = viability on the fitted dose curve at most 10% of control; inactive = the rest
Method in brief: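 Agents were dosed in half-log steps down from roughly clinical Cmax, or from 10 microM where Cmax was unknown, alone and with AhR antagonists. Read-out: percent test/control growth of tumor spheroids containing HUVEC and MSC stromal cells.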

[1] = curve of first compound, second compound 0.1 µM
[2] = curve of first compound, second compound 0.316 µM
[3] = curve of first compound, second compound 1 µM
[4] = curve of first compound, second compound 3.16 µM
[5] = curve of first compound, second compound 10 µM
[6] = second compound 0.1 µM, first compound 0.0316 µM
[7] = second compound 0.1 µM, first compound 0.1 µM
[8] = second compound 0.1 µM, first compound 0.316 µM
[9] = second compound 0.1 µM, first compound 1 µM
[10] = second compound 0.1 µM, first compound 3.16 µM
[11] = second compound 0.1 µM, first compound 10 µM
[12] = second compound 0.316 µM, first compound 0.0316 µM
[13] = second compound 0.316 µM, first compound 0.1 µM
[14] = second compound 0.316 µM, first compound 0.316 µM
[15] = second compound 0.316 µM, first compound 1 µM
[16] = second compound 0.316 µM, first compound 3.16 µM
[17] = second compound 0.316 µM, first compound 10 µM
[18] = second compound 1 µM, first compound 0.0316 µM
[19] = second compound 1 µM, first compound 0.1 µM
[20] = second compound 1 µM, first compound 0.316 µM
[21] = second compound 1 µM, first compound 1 µM
[22] = second compound 1 µM, first compound 3.16 µM
[23] = second compound 1 µM, first compound 10 µM
[24] = second compound 3.16 µM, first compound 0.0316 µM
[25] = second compound 3.16 µM, first compound 0.1 µM
[26] = second compound 3.16 µM, first compound 0.316 µM
[27] = second compound 3.16 µM, first compound 1 µM
[28] = second compound 3.16 µM, first compound 3.16 µM
[29] = second compound 3.16 µM, first compound 10 µM
[30] = second compound 10 µM, first compound 0.0316 µM
[31] = second compound 10 µM, first compound 0.1 µM
[32] = second compound 10 µM, first compound 0.316 µM
[33] = second compound 10 µM, first compound 1 µM
[34] = second compound 10 µM, first compound 3.16 µM
[35] = second compound 10 µM, first compound 10 µM
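Also: spheroids exposed to compounds for seven days after three days of growth.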

NS(=O)(=O)OCC1CC(n2ccc3c(NC4CCc5ccccc54)ncnc32)CC1O (stereo not given) + Cc1ccccc1N=Nc1ccc(NC(=O)c2ccnn2C)c(C)c1
6.77: pIC50 [2]
inactive: viability, T/C [6] 122% | viability, T/C [7] 88.3% | viability, T/C [8] 19.3% | viability, T/C [12] 128% | viability, T/C [13] 77.9% | viability, T/C [14] 15.7% | viability, T/C [18] 111% | viability, T/C [19] 73.6% | viability, T/C [20] 16.2% | viability, T/C [24] 100% | viability, T/C [25] 64% | viability, T/C [26] 13.8% | viability, T/C [30] 88.9% | viability, T/C [31] 55.2% | viability, T/C [32] 13.7%
6.86: pIC50 [4]
active: viability, T/C [9] 4.4% | viability, T/C [10] 3.09% | viability, T/C [11] 2.81% | viability, T/C [15] 4.5% | viability, T/C [16] 4.78% | viability, T/C [17] 3.59% | viability, T/C [21] 6.04% | viability, T/C [22] 3.96% | viability, T/C [23] 5.05% | viability, T/C [27] 4.58% | viability, T/C [28] 8.31% | viability, T/C [29] 2.91% | viability, T/C [33] 5.55% | viability, T/C [34] 3.67% | viability, T/C [35] 2.58%
6.94: pIC50 [5]
6.72: pIC50 [1]
6.79: pIC50 [3]

CCN(c1cc(-c2ccc(CN3CCOCC3)cc2)cc(C(=O)NCc2c(C)cc(C)[nH]c2=O)c1C)C1CCOCC1 + Cc1cncc(-c2nc(NCCc3c[nH]c4ccccc34)c3ncn(C(C)C)c3n2)c1
7.47: pIC50 [5]
inactive: viability, T/C (second compound 0.1 µM, first compound 0.00949 µM) 93.8% | viability, T/C (second compound 0.1 µM, first compound 0.03 µM) 94.5% | viability, T/C (second compound 0.1 µM, first compound 0.0949 µM) 92.7% | viability, T/C (second compound 0.1 µM, first compound 0.3 µM) 84.9% | viability, T/C (second compound 0.1 µM, first compound 0.949 µM) 82.7% | viability, T/C (second compound 0.1 µM, first compound 3 µM) 67.3% | viability, T/C (second compound 0.316 µM, first compound 0.00949 µM) 94.7% | viability, T/C (second compound 0.316 µM, first compound 0.03 µM) 91.1% | viability, T/C (second compound 0.316 µM, first compound 0.0949 µM) 90% | viability, T/C (second compound 0.316 µM, first compound 0.3 µM) 77.6% | viability, T/C (second compound 0.316 µM, first compound 0.949 µM) 78.5% | viability, T/C (second compound 0.316 µM, first compound 3 µM) 83.3% | viability, T/C (second compound 1 µM, first compound 0.00949 µM) 87.2% | viability, T/C (second compound 1 µM, first compound 0.03 µM) 88.8% | viability, T/C (second compound 1 µM, first compound 0.0949 µM) 84.9% | viability, T/C (second compound 1 µM, first compound 0.3 µM) 76.4% | viability, T/C (second compound 1 µM, first compound 0.949 µM) 75.4% | viability, T/C (second compound 1 µM, first compound 3 µM) 75.8% | viability, T/C (second compound 3.16 µM, first compound 0.00949 µM) 64.4% | viability, T/C (second compound 3.16 µM, first compound 0.03 µM) 66.7% | viability, T/C (second compound 3.16 µM, first compound 0.0949 µM) 73.2% | viability, T/C (second compound 3.16 µM, first compound 0.3 µM) 64.2% | viability, T/C (second compound 3.16 µM, first compound 0.949 µM) 62.8% | viability, T/C (second compound 3.16 µM, first compound 3 µM) 52.7% | viability, T/C (second compound 10 µM, first compound 0.00949 µM) 49.2% | viability, T/C (second compound 10 µM, first compound 0.03 µM) 49.6% | viability, T/C (second compound 10 µM, first compound 0.0949 µM) 52.7% | viability, T/C (second compound 10 µM, first compound 0.3 µM) 49.3% | viability, T/C (second compound 10 µM, first compound 0.949 µM) 41.1% | viability, T/C (second compound 10 µM, first compound 3 µM) 45.3%
< 5.52: pIC50 [1] | pIC50 [2] | pIC50 [3] | pIC50 [4]

COc1ccc([C@@H](O)c2cc(-c3ncnc4cc(N5CCOCC5)ccc34)c(F)cc2Cl)nn1 + CC(CO)NC(=O)c1cc(-c2ccc(Cl)cc2)nn(-c2cnn(C)c2)c1=O
inactive: viability, T/C [6] 94.5% | viability, T/C [7] 97.8% | viability, T/C [8] 86.6% | viability, T/C [9] 59.1% | viability, T/C [10] 41.9% | viability, T/C [11] 25.1% | viability, T/C [12] 101% | viability, T/C [13] 95.1% | viability, T/C [14] 87% | viability, T/C [15] 60.5% | viability, T/C [16] 39.9% | viability, T/C [17] 24.7% | viability, T/C [18] 102% | viability, T/C [19] 98.9% | viability, T/C [20] 78.4% | viability, T/C [21] 61.4% | viability, T/C [22] 42.2% | viability, T/C [23] 28.1% | viability, T/C [24] 85.8% | viability, T/C [25] 82.6% | viability, T/C [26] 78.6% | viability, T/C [27] 52.9% | viability, T/C [28] 36% | viability, T/C [29] 24.3% | viability, T/C [30] 68% | viability, T/C [31] 77.1% | viability, T/C [32] 68.9% | viability, T/C [33] 49.9% | viability, T/C [34] 31.9% | viability, T/C [35] 23.2%
5.72: pIC50 [3]
5.88: pIC50 [4]
5.97: pIC50 [5]
5.74: pIC50 [1] | pIC50 [2]

CC(CO)NC(=O)c1cc(-c2ccc(Cl)cc2)nn(-c2cnn(C)c2)c1=O (stereo not given)
< 5.00: pIC50 (compound alone, run of 05/31/2022)
inactive: viability, T/C (compound 0.1 µM) 102% [middle of 21 runs] | viability, T/C (compound 0.316 µM) 98.8% [middle of 21 runs] | viability, T/C (compound 1 µM) 99.2% [middle of 20 runs] | viability, T/C (compound 3.16 µM) 88.8% [middle of 19 runs] | viability, T/C (compound 10 µM) 70.5% [middle of 19 runs]

Cn1ncnc1C1c2n[nH]c(=O)c3cc(F)cc(c23)NC1c1ccc(F)cc1 (stereo not given) + Cc1ccccc1N=Nc1ccc(NC(=O)c2ccnn2C)c(C)c1
< 7.00: pIC50 [1] | pIC50 [2] | pIC50 [3] | pIC50 [4] | pIC50 [5]
inactive: viability, T/C (second compound 0.1 µM, first compound 0.000316 µM) 96.1% | viability, T/C (second compound 0.1 µM, first compound 0.001 µM) 83% | viability, T/C (second compound 0.1 µM, first compound 0.00316 µM) 83.2% | viability, T/C (second compound 0.1 µM, first compound 0.01 µM) 85.7% | viability, T/C [6] 87.8% | viability, T/C [7] 82.6% | viability, T/C (second compound 0.316 µM, first compound 0.000316 µM) 90.9% | viability, T/C (second compound 0.316 µM, first compound 0.001 µM) 76.6% | viability, T/C (second compound 0.316 µM, first compound 0.00316 µM) 86.4% | viability, T/C (second compound 0.316 µM, first compound 0.01 µM) 74.8% | viability, T/C [12] 73.8% | viability, T/C [13] 86.2% | viability, T/C (second compound 1 µM, first compound 0.000316 µM) 78.6% | viability, T/C (second compound 1 µM, first compound 0.001 µM) 81% | viability, T/C (second compound 1 µM, first compound 0.00316 µM) 80.3% | viability, T/C (second compound 1 µM, first compound 0.01 µM) 81.3% | viability, T/C [18] 87.8% | viability, T/C [19] 74.1% | viability, T/C (second compound 3.16 µM, first compound 0.000316 µM) 80.9% | viability, T/C (second compound 3.16 µM, first compound 0.001 µM) 76.2% | viability, T/C (second compound 3.16 µM, first compound 0.00316 µM) 76.3% | viability, T/C (second compound 3.16 µM, first compound 0.01 µM) 75.1% | viability, T/C [24] 72.5% | viability, T/C [25] 59.6% | viability, T/C (second compound 10 µM, first compound 0.000316 µM) 64% | viability, T/C (second compound 10 µM, first compound 0.001 µM) 68.5% | viability, T/C (second compound 10 µM, first compound 0.00316 µM) 51.8% | viability, T/C (second compound 10 µM, first compound 0.01 µM) 61.7% | viability, T/C [30] 53.3% | viability, T/C [31] 52.8%

O=C(C=Cn1cnc(-c2cc(C(F)(F)F)cc(C(F)(F)F)c2)n1)NNc1cnccn1
6.72 and 6.81 and 6.89: pIC50 (curve of compound)
inactive: viability, T/C (compound 0.00949 µM) 104% and 95% and 86.6% | viability, T/C (compound 0.03 µM) 97.2% and 93% and 80.9% | viability, T/C (compound 0.0949 µM) 64.4% and 58.7% and 54.5% | viability, T/C (compound 0.3 µM) 39.5% and 34.5% and 32.4% | viability, T/C (compound 0.949 µM) 25.6% and 18.9% and 22.2% | viability, T/C (compound 3 µM) 15.2% and 10.5% and 13.3%

O=C(c1cc(Cc2n[nH]c(=O)c3ccccc23)ccc1F)N1CCN(C(=O)C2CC2)CC1
inactive: viability, T/C (compound 0.0316 µM) 110% and 97.3% and 99.3% | viability, T/C (compound 0.1 µM) 110% and 100% and 95.6% | viability, T/C (compound 0.316 µM) 95.5% and 93.5% and 84.8% | viability, T/C (compound 1 µM) 98.6% and 97.8% and 91.6% | viability, T/C (compound 3.16 µM) 102% and 92.5% and 83.3% | viability, T/C (compound 10 µM) 80% and 74.5% and 68%
< 5.00: pIC50 (curve of compound)
